In patent US10828300B2, “Substituted 2,4-diaminopyrimidines as kinase inhibitors” (Celgene CAR LLC, priority 2008, dated 2020):
Entries after “also recorded” stand apart in the source; their conditions may differ. One block for each molecule: values may come before it.

How the values were obtained:
Erbb4 kinase domain = Erbb4 kinase domain (Homo sapiens (Human), UniProt Q15303); test: Mass spectrometry for ERBB4 (intact protein); assay type: binding; conditions: 60 minutes at 10-fold excess of compound
Protocol: Mass Spectrometry for ERBB4
Erbb4 kinase domain (Upstate) was incubated with compound for 60 minutes at 10-fold excess of compound I-4 and I-11 to protein. 1 μl aliquots of the samples (total volume of 4.24 ul) were diluted with 10 μl of 0.1% TFA prior to micro C4 ZipTipping directly onto the MALDI target using Sinapinic acid as the desorption matrix (10 mg/ml in 0.1% TFA:Acetonitrile 50:50). For intact protein mass measurement the instrument was set in Linear mode using a pulsed extraction setting of 16,952 for the myoglobin standard used to calibrate the instrument (Shimadzu Axima TOF^2).
Intact ErbB4 protein occurs at MH+ of 35850 with corresponding sinapinic (matrix) adducts occurring about 200 Da higher. A stochiometric incorporation of the test compound (I-4 and I-11) (Mw of 410 Da) produced a new mass peak which is approximately 410 Da higher (MH+ of 36260).

JAK3 kinase = JAK3 kinase (Homo sapiens (Human), UniProt P52333); test: Mass spectrometry for Janus-3 kinase (JAK3), tryptic digest; assay type: binding, homosapien; conditions: 3 hrs at 10× excess, peptide LVMEYLPSGCLR
Protocol: Mass Spectrometry for Janus-3 Kinase (JAK3)
(§1) JAK3 kinase (33 pmols; Invitrogen) was incubated with (I-7) (327 pmols) for 3 hrs at 10× excess prior to tryptic digestion. Iodoacetamide was used as the alkylating agent after compound incubation. For tryptic digests a 5 ul aliquot (5.5 pmols) was diluted with 15 ul of 0.1% TFA prior to micro C18 Zip Tipping directly onto the MALDI target using alpha cyano-4-hydroxy cinnamic acid as the matrix (5 mg/ml in 0.1% TFA:Acetonitrile 50:50).
(§2) For tryptic digests the instrument was set in Reflectron mode with a pulsed extraction setting of 2200. Calibration was done using the Laser Biolabs Pep Mix standard ([…], 1296.69, 1672.92, 2093.09, 2465.20). For CID/PSD analysis the peptide was selected using cursors to set ion gate timing and fragmentation occurred at a laser power about 20% higher and He was used as the collision gas for CID. Calibration for fragments was done using the P14R fragmentation calibration for the Curved field Reflectron.

BTK [1] = molecular target: T1, BTK (Homo sapiens (Human), UniProt Q06187); test: Omnia assay protocol for potency assessment against BTK; assay type: biochemical
Source text: Omnia Assay Protocol for Potency Assessment Against BTK

ITK = ITK (Homo sapiens (Human), UniProt Q08881); test: Omnia assay for potency assessment against active forms of ITK kinase; assay type: biochemical; conditions: [ITK]=10 nM, [ATP]=25 μM, [Y6-Sox]=10 μM; read-out: ITK Inhibition
BTK [2] = molecular target: T1, BTK; test: BTK Ramos cellular assay (phosphorylation of BTK substrate PLCγ2); assay type: cell-based; conditions: Ramos cells, anti-IgM stimulated, read-out: BTK Inhibition (BTK Ramos Cellular Inhibition Data)
Protocol: Ramos cells were grown in suspension in T225 flasks, spun down, resuspended in 50 ml serum-free media and incubated for 1 hour. […] Ramos cells were incubated with compound for 1 hour, washed again and resuspended in 100 ul serum-free media. Cells were then stimulated with 1 μg of goat F(ab′)2 Anti-Human IgM and incubated on ice for 10 minutes to activate B cell receptor signaling pathways. After 10 minutes, the cells were washed once with PBS and then lysed on ice with Invitrogen Cell Extraction buffer. 16 μg total protein from lysates were loaded on gel and blots were probed for phosphorylation of the BTK substrate PLCγ2.

EGFR-WT = EGFR-WT (Homo sapiens (Human), UniProt P00533); test: Omnia assay for potency assessment against EGFR (WT); assay type: biochemical; conditions: read-out: EGFR Wild Type Inhibition
BTK [3] = molecular target: T1, BTK; test: Mass spectrometry for BTK (intact protein, covalent modification); assay type: binding
Protocol: Mass Spectrometry for BTK
Intact BTK was incubated for 1 hr at a 10× fold excess of I-7 to protein. Aliquots (2 μl) of the samples were diluted with 10 μl of 0.1% TFA prior to micro C4 ZipTipping directly onto the MALDI target using Sinapinic acid as the desorption matrix (10 mg/ml in 0.1% TFA:Acetonitrile 20:80).

BTK [4] = molecular target: T1, BTK; test: BTK occupancy from in vitro samples by ELISA (Ramos cells, probe I-215); assay type: cell-based; conditions: probe I-215 ELISA
Source text: Measuring BTK occupancy from in vitro samples by ELISA
In order to determine the amount of free BTK in cell or tissue lysates, an ELISA protocol was employed that utilizes a biotinylated probe compound that binds only to free, unoccupied BTK. The conjugated biotin is captured on a streptavidin-coated ELISA plate and detected with a mouse anti-BTK antibody (Becton Dickinson, Franklin Lakes, N.J., USA) and a secondary goat anti-mouse HRP antibody (Zymed, South San Francisco, Calif., USA).
All samples were prepared with equal concentrations of Biorad lysis buffer (Hercules, Calif., USA), 0.5% bovine serum albumin in PBS with 0.05% Tween-20 to give a final concentration of 1 μM I-215. Samples were incubated in a mixing plate for 1 hr at room temperature while shaking to allow probe compound I-215 to bind to free BTK. After incubation with I-215, samples were added to a washed, streptavidin-coated ELISA plate (Pierce, Rockford, Ill., USA) and incubated for 1 hr at room temperature while shaking. The plate was then washed with PBS containing 0.05% Tween-20 using an automatic plate washer. Anti-BTK antibody was prepared at 1:1000 dilution in 0.5% BSA in PBS (0.05% Tween-20) and added to the ELISA plate. The plate was incubated for 1 hr at room temperature while shaking. The plate was washed as described above and the secondary HRP antibody was prepared at 1:5000 dilution in 0.5% BSA in PBS (0.05% Tween-20). The plate was incubated and washed as described above. TMB was added to the plate, and OD650 was monitored until reaching 1 OD unit. The reaction was then stopped with addition of H2SO4. The plate was analyzed using Gen 5 software, and a 4 Parameter Logistic curve was employed to quantitate samples. Recombinant BTK (Invitrogen, Carlsbad, Calif., USA) was used for the standard curve.
A concentration designated as “A” is greater than 1 nM; a concentration designated as “B” is greater than 10 nM; and a concentration designated as “C” is greater than 50 nM.

TEC kinase = TEC kinase (Homo sapiens (Human), UniProt P42680); test: Mass spectrometry for TEC kinase (tryptic digest); assay type: binding, Homo sapien; conditions: 3 hrs at 10× excess, peptide GCLLNFLR
Protocol: Mass Spectrometry for TEC Kinase (Compound I-2)
as §1, with “TEC” for “JAK3”, “(45” for “(33”, “(I-2) (450” for “(I-7) (327”, “incubation. […]” for “incubation.”, “(7.5” for “(5.5”
as §2
Mass Spectrometry for TEC Kinase (Compound I-4)
as §1, with “TEC” for “JAK3”, “(45” for “(33”, “(I-4) (450” for “(I-7) (327”, “incubation. […]” for “incubation.”, “(7.5” for “(5.5”
as §2, with “1800.” for “2200.”
Mass Spectrometry for TEC Kinase (Compound I-7) […]

BTK [5] = molecular target: T1, BTK; test: Washout experiment with I-7 and probe compound I-215 in Ramos cells; assay type: cell-based; conditions: 0.1 μM for 1 hour, then washout, probe I-215
Protocol: Washout Experiment with I-7 and Probe Compound I-215
Ramos cells were incubated with 0.1 μM I-7 or a reversible BTK inhibitor control compound in serum free media for 1 hour at 37° C. The cells were then washed in compound-free media and lysed 0, 4, 6, or 8 hours after compound removal. Cell lysates were incubated with 1 μM I-215 for 1 hour at room temperature, then overnight at 4° C. with streptavidin-coupled agarose beads. Protein was boiled off the beads and BTK association was assessed by western blot. […] In contrast, with the reversible inhibitor control, 45% of BTK protein is unbound and available to the probe at 0 hours and by 4 hours 100% of BTK protein is unbound and available to bind the probe. All samples were normalized to the DMSO-treated cells harvested at 0 hours.

BTK [6] = molecular target: T1, BTK; test: Washout experiment with Ramos cells (PLCγ2 phosphorylation); assay type: cell-based; conditions: Ramos washout assay, 100 nM compound for 1 hour
Protocol: Washout Experiment with Ramos Cells
Ramos cells were serum starved for one hour in RPMI media +1% glutamine at 37° C. After starvation, Ramos cells were treated with 100 nM compound diluted in serum free RPMI media for 1 hour. After compound treatment, the media was removed and cells were washed with compound-free media. Subsequently, Ramos cells were washed every 2 hours and resuspended in fresh compound-free media. Cells were collected at specified timepoints, treated with 1 ug anti-human IgM (Southern Biotech cat #2022-01) for 10 minutes on ice to induce BCR signaling and then washed in PBS. Ramos cells were then lysed in Cell Extraction Buffer (Invitrogen FNN0011) supplemented with Roche complete protease inhibitor tablets (Roche 11697498001) and phosphatase inhibitors (Roche 04 906 837 001) and 18 ug total protein lysate was loaded in each lane. Inhibition of BTK kinase activity was assayed by measuring its substrate (PLCγ2) phosphorylation by western blot with phospho-specific antibodies from Cell Signaling Technologies cat#3871. The results of this experiment with compounds I-2, I-4 and I-7 are depicted in FIGS. 1, 2 and 3.

T1 sequence (Q06187 whole entry): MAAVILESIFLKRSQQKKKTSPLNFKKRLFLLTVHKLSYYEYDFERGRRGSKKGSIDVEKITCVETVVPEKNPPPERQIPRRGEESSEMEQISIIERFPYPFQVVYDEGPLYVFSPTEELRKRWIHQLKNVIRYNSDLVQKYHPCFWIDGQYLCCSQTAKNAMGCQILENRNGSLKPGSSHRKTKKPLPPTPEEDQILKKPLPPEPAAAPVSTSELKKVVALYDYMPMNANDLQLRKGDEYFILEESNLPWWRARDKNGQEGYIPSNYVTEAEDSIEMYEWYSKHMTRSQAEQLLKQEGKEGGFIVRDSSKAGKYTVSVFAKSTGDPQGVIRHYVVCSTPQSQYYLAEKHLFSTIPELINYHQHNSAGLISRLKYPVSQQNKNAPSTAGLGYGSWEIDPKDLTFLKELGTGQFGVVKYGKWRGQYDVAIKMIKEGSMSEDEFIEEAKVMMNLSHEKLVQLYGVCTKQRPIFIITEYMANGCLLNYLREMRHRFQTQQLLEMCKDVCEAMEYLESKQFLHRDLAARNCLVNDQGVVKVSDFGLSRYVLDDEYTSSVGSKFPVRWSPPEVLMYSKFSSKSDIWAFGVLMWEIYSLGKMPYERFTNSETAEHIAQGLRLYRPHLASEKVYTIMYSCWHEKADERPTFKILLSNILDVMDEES
Chain of JAK3 kinase (P52333 whole entry): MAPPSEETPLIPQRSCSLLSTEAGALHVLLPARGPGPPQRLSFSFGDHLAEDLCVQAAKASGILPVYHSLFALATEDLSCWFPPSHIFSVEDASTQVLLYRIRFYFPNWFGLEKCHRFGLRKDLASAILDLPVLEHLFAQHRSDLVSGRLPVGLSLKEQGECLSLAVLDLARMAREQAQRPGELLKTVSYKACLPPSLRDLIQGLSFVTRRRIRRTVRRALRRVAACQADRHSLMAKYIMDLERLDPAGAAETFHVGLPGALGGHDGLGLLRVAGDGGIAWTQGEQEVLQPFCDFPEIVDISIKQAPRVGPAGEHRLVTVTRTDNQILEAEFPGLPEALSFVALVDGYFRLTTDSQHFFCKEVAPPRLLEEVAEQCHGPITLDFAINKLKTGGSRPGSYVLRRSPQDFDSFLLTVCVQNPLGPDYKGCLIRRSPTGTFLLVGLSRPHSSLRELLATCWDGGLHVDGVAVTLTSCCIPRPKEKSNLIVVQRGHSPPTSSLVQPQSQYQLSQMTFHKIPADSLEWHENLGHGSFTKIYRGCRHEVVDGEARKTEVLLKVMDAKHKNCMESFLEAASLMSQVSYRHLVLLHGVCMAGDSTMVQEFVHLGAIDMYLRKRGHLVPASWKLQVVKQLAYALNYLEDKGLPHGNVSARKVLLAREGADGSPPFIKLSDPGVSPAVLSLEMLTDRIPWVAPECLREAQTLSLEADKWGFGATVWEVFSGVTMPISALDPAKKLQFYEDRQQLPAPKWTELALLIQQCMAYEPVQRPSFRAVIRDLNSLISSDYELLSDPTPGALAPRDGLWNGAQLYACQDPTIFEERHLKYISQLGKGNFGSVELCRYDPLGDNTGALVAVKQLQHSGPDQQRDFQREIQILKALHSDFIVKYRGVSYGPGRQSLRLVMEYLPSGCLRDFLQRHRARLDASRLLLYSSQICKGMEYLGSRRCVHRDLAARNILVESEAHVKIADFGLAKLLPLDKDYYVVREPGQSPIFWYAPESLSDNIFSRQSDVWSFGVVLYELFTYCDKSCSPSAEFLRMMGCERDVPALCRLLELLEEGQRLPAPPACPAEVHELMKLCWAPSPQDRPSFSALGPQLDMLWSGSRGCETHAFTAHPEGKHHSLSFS
Chain of TEC kinase (P42680 whole entry): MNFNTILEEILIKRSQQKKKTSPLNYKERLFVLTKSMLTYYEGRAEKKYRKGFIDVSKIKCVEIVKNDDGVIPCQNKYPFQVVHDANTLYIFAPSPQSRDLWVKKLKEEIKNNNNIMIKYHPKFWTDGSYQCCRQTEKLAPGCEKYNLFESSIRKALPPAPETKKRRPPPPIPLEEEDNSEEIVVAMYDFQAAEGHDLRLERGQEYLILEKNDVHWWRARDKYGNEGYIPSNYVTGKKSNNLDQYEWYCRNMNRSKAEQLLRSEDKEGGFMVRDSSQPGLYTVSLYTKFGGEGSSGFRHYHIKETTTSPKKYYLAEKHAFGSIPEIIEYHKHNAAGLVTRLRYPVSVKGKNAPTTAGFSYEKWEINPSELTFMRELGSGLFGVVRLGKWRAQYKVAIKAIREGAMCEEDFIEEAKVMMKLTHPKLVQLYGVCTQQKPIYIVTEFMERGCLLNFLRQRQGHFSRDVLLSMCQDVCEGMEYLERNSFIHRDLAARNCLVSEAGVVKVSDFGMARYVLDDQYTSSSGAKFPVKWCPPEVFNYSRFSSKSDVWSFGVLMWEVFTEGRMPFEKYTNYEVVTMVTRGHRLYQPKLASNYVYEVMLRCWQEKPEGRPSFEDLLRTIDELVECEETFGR
Chain of Erbb4 kinase domain (Q15303 718-985): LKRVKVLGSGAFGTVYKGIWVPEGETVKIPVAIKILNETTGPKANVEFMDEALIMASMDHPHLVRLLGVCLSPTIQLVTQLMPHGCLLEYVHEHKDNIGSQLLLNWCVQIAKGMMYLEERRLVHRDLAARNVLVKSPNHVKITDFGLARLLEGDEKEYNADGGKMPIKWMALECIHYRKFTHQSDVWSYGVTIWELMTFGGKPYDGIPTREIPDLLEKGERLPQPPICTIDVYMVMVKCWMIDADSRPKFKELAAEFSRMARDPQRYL
Chain of ITK (Q08881 whole entry): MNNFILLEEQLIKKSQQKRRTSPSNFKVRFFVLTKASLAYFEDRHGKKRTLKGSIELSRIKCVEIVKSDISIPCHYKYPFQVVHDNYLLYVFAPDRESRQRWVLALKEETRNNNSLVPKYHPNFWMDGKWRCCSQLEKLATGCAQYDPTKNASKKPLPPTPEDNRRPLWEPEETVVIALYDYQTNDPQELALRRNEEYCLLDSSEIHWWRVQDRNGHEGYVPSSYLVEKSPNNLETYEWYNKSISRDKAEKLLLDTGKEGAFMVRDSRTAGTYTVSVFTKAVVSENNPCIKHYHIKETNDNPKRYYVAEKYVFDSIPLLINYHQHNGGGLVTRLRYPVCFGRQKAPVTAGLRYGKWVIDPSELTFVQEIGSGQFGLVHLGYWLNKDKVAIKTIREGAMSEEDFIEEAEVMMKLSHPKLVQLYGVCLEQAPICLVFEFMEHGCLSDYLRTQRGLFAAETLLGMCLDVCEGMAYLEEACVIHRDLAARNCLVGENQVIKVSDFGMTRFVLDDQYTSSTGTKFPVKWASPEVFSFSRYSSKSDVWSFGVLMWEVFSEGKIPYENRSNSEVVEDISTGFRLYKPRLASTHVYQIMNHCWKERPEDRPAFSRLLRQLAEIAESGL
Chain of EGFR-WT (P00533 25-1210): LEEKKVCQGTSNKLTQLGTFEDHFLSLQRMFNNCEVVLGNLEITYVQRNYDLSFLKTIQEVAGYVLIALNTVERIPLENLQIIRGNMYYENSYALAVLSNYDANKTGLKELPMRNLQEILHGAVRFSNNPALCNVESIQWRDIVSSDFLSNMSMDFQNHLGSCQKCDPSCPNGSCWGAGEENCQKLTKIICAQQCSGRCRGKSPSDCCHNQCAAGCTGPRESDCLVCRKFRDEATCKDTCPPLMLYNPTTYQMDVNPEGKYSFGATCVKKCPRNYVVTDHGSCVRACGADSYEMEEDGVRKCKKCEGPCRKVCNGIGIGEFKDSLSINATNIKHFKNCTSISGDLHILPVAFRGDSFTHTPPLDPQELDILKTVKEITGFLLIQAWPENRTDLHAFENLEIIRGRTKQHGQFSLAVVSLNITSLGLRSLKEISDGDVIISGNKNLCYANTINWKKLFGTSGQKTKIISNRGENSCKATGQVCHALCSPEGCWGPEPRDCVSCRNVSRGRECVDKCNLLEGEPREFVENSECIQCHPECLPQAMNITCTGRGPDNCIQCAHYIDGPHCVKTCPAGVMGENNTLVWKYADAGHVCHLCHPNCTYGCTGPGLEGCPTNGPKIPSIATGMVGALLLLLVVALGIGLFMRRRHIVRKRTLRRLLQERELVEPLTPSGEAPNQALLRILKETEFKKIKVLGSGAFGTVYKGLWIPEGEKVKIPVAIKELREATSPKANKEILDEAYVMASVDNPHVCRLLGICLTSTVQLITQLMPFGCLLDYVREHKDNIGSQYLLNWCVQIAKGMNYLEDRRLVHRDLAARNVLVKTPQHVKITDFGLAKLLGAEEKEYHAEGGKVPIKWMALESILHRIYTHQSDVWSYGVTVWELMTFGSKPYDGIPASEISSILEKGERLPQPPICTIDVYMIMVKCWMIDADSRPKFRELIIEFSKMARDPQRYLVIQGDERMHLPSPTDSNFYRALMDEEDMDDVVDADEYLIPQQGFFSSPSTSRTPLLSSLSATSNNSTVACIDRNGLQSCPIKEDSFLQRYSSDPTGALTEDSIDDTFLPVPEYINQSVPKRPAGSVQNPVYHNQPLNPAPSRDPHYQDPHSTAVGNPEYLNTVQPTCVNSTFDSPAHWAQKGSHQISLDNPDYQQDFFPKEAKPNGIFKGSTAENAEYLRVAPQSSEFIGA

covalent modification of ErbB4 by mass spectrometry (Erbb4 kinase domain): covalent modification of ErbB4 | covalent modification of JAK3 by mass spectrometry (JAK3 kinase): measurable modification
Compound: Cc1cnc(Nc2cccc(S(N)(=O)=O)c2)nc1Nc1ccc2c(c1)CCN(C(=O)CCl)C2 [Compound I-11, 3-(4-(2-(2-chloroacetyl)-1,2,3,4-tetrahydroisoquinolin-6-ylamino)-5-methylpyrimidin-2-ylamino)benzenesulfonamide]

biochemical activity against BTK (BTK [1]): biochemically inactive against BTK
Compound: CCC(=O)Nc1cccc(Nc2nc(Nc3ccccc3)ncc2C)c1 [I^R-7, N-(3-(5-methyl-2-(phenylamino)pyrimidin-4-ylamino)phenyl) propionamide]

IC50 (ITK): 0.01 to 0.1 µM | IC50 (BTK [2]): 0.1 to 1 µM | IC50 (EGFR-WT): < 0.01 µM | IC50 (BTK [1]; Omnia assay, [BTK]=5 nM, read-out: BTK Inhibition): < 0.01 µM
Compound: C=CC(=O)Nc1cccc(Oc2nc(Nc3ccc(OC)nc3)ncc2C(=O)NC2CC2)c1 [Compound I-176, 4-(3-acrylamidophenoxy)-2-(6-methoxypyridin-3-ylamino)-pyrimidine-5-carboxylic acid cyclopropylamide]

positive shift of centroid mass of BTK (BTK [3]; intact BTK incubated 1 hr with 10× fold excess of compound): about 371.1 Da | concentration at which >50% of BTK is occupied (BTK [4]): A (greater than 1 nM) | concentration at which >90% of BTK is occupied (BTK [4]): B (greater than 10 nM) | time BTK protein remains occupied after compound removal (BTK [5]): over 8 hours | BTK Inhibition Type (BTK [6]): irreversible
Compound: C=CC(=O)Nc1cccc(Nc2nc(Nc3ccccc3)ncc2C)c1 [Compound I-7, N-(3-(5-methyl-2-(phenylamino)pyrimidin-4-ylamino)phenyl) acrylamide]
covalent modification of BTK by mass spectrometry (BTK [3]; intact BTK, 1 hr, 10× fold excess of compound): complete modification; also recorded: covalent modification of BTK | covalent modification of TEC kinase by mass spectrometry (TEC kinase): reaction was complete; also recorded: covalent modification of TEC kinase at Cys449 | covalent modification of JAK3 by mass spectrometry (JAK3 kinase): reaction was not entirely complete; also recorded: covalent modification of JAK-3 kinase at Cys909

covalent modification of ErbB4 by mass spectrometry (Erbb4 kinase domain): covalent modification of ErbB4 | BTK Inhibition Type (BTK [6]): irreversible
Compound: Cc1cccc(Nc2nc(Nc3cccc(NC(=O)/C=C/CN(C)C)c3)ncc2F)c1 [Compound I-4, (E)-4-(dimethylamino)-N-(3-(5-fluoro-4-(m-tolylamino)pyrimidin-2-ylamino)phenyl)but-2-enamide]
covalent modification of TEC kinase by mass spectrometry (TEC kinase): reaction was complete; also recorded: covalent modification of TEC kinase at Cys449
